# How the values were obtained:
# [1] = Fluorescence properties (excitation/emission maxima); format: physicochemical
# CB1/CB2 receptors = experiment: Tight/irreversible binding: reduction of [3H]CP-55,940 Bmax after ligand pretreatment; settings: receptors preincubated with ligand at 10-fold its Ki; saturation binding with [3H]CP-55,940; FIG. 8C
# Procedure: Some disclosed compounds were tested for CB1 and CB2 receptor binding affinity (Tables 1, 2 and 3). As used herein “binding affinity” is represented by the Ki value. The Ki value is the affinity constant and describes the affinity of the compound for the receptor. The lower the Ki value, the higher the affinity of the compound for the receptor. A detailed description of the methods used to test “binding affinity” of compounds is given in Makriyannis, et al., US 2007, 0135388 and in Papahatjis, et al. J. Med. Chem. (2007) 4048, the content of each of which is hereby incorporated by reference. Functional characterization of some of the disclosed compounds was performed by using the cyclic adenosine monophosphate (cAMP) assay. The functional potency of the compound is represented by the EC50 value. The lower the EC50 value, the higher the functional potency. A detailed description of the cyclic adenosine monophosphate (cAMP) assay is given in Nikas et al. J. Med. Chem. (2010) 6996. The ability of some of the ligands to bind to the CB1/CB2 receptors with a tight/irreversible binding mode was determined by measuring reductions in the binding for the radioligand [3H]CP-55,940 when the receptor preparation was pretreated with the tight/irreversible ligand, and comparing it to the untreated sample as disclosed in Ogava et al. J. Med. Chem. (2015) 58, 3104. Reductions in the specific binding (Bmax) of [^3H]CP-55,940 after ligand pretreatment indicate ability of the ligand to tight/irreversibly bind to the receptor. As detailed in Ogava et al. J Med. Chem. (2015) 58, 3104, the experiment was conducted by pretreating the sample with a concentration equal to 10-fold the compound's Ki value for the receptor in question and subsequently measuring the decrease of Bmax obtained from a saturation curve using [3H]CP-55,940.
smiles,measurement,setting,value
"CCCCCCC(C)(C)c1cc(OC(=O)C(C)(C)CCCCNC(=O)c2cc3cc4c5c(c3oc2=O)CCCN5CCC4)c2c(c1)OC(C)(C)C1CCC(=O)C[C@@H]21 (stereo in doubt) [Compound 9.12, (6aS,10aR)-6,6-Dimethyl-3-(2-methyloctan-2-yl)-9-oxo-6a,7,8,9,10,10a-hexahydro-6H-benzo[c]chromen-1-yl 2,2-dimethyl-6-(11-oxo-2,3,6,7-tetrahydro-1H, 5H, 11H-pyrano[2,3-f]pyrido[3,2,1-ij]quinoline-10-carboxamido)hexanoate]",melting point,,133 to 134 °C
"CN(C)S(=O)(=O)c1ccc(NCc2cn(C[C@@H]3CC[C@@H]4[C@@H](C3)c3c(O)cc(C(C)(C)CCCCCCCl)cc3OC4(C)C)nn2)c2nonc12 [Compound 3.3, 7-(((1-(((6aR,9R,10aR)-3-(8-Chloro-2-methyloctan-2-yl)-1-hydroxy-6,6-dimethyl-6a,7,8,9,10,10a-hexahydro-6H-benzo [c]chromen-9-yl)methyl)-1H-1,2,3-triazol-4-yl)methyl)amino)-N,N-dimethylbenzo[c][1,2,5]oxadiazole-4-sulfonamide]",Em λmax,[1]; Acetonitrile,583
same,Ex λmax,[1]; Acetonitrile,416
same,Em λmax,[1]; Ethanol,581
same,Ex λmax,[1]; Ethanol,415
"CCCCCCC(C)(C)c1cc(OC(=O)C(C)(C)CCCNC(=O)c2cc3cc4c5c(c3oc2=O)CCCN5CCC4)c2c(c1)OC(C)(C)C1CCC(=O)C[C@@H]21 (stereo in doubt) [Compound 9.11, (6aS,10aR)-6,6-Dimethyl-3-(2-methyloctan-2-yl)-9-oxo-6a,7,8,9,10,10a-hexahydro-6H-benzo[c]chromen-1-yl 2,2-dimethyl-5-(11-oxo-2,3,6,7-tetrahydro-1H, 5H, 11H-pyrano[2,3-f]pyrido[3,2,1-ij]quinoline-10-carboxamido)pentanoate]",melting point,,130 to 131 °C
"CC(C)(CCCCCCCl)c1cc(O)c2c(c1)OC(C)(C)[C@@H]1CC[C@@H](Cn3cc(COC(=O)CCCCCNC(=O)CCCC[C@@H]4SC[C@@H]5NC(=O)N[C@@H]54)nn3)C[C@@H]21 [Compound 3.2, (1-{[(6aR,9R,10aR)-3-(8-Chloro-2-methyloctan-2-yl)-1-hydroxy-6,6-dimethyl-6a,7,8,9,10,10a-hexahydro-6H-benzo [c]chromen-9-yl]methyl}-1H-1,2,3-triazol-4-yl)methyl 6-{5-[(3aS,4S,6aR)-2-oxohexahydro-1H-thieno[3,4-d]imidazol-4-yl]pentanamido}hexanoate]",tight/irreversible binding mode,CB1/CB2 receptors,tight/irreversible
"CCCCCCC(C)(C)c1cc(OC(=O)c2cc3cc4c5c(c3oc2=O)CCCN5CCC4)c2c(c1)OC(C)(C)[C@@H]1CCC(=O)C[C@@H]21 [Compound 7.1, (6aR,10aR)-6,6-Dimethyl-3-(2-methyloctan-2-yl)-9-oxo-6a,7,8,9,10,10a-hexahydro-6H-benzo[c]chromen-1-yl 11-oxo-2,3,6,7-tetrahydro-1H, 5H, 11H-pyrano[2,3-f]pyrido[3,2,1-ij]quinoline-10-carboxylate]",melting point,,132 to 133 °C
"CC(C)(CCCCCCCl)c1cc(O)c2c(c1)OC(C)(C)[C@@H]1CC[C@@H](COC(=O)CCCCCNC(=O)CCCC[C@@H]3SC[C@@H]4NC(=O)N[C@@H]43)C[C@@H]21 [Compound 4.4, [(6aR,9R,10aR)-3-(8-Chloro-2-methyloctan-2-yl)-1-hydroxy-6,6-dimethyl-6a,7,8,9,10,10a-hexahydro-6H-benzo[c]chromen-9-yl]methyl 6-{5-[(3aS,4S,6aR)-2-oxohexahydro-1H-thieno[3,4-d]imidazol-4-yl]pentanamido}hexanoate]",tight/irreversible binding mode,CB1/CB2 receptors,tight/irreversible
"CC(C)(CCCCCCCl)c1cc(O)c2c(c1)OC(C)(C)[C@@H]1CC[C@@H](Cn3cc(COCCCCNC(=O)c4cc5cc6c7c(c5oc4=O)CCCN7CCC6)nn3)C[C@@H]21 [Compound 3.4, N-{4-[(1-{[(6aR,9R,10aR)-3-(8-Chloro-2-methyloctan-2-yl)-1-hydroxy-6,6-dimethyl-6a,7,8,9,10,10a-hexahydro-6H-benzo[c]chromen-9-yl]methyl}-1H-1,2,3-triazol-4-yl)methoxy]butyl}-11-oxo-2,3,6,7-tetrahydro-1H, 5H, 11H-pyrano[2,3-f]pyrido[3,2,1-ij]quinoline-10-carboxamide]",Em λmax,[1]; Acetonitrile,488
same,Ex λmax,[1]; Acetonitrile,437
same,Em λmax,[1]; Ethanol,477
same,Ex λmax,[1]; Ethanol,436
"CCCCCCC(C)(C)c1cc(OC(=O)C(C)(C)CCNC(=O)c2cc3cc4c5c(c3oc2=O)CCCN5CCC4)c2c(c1)OC(C)(C)[C@@H]1CCC(=O)C[C@@H]21 [Compound 9.10, (6aR,10aR)-6,6-Dimethyl-3-(2-methyloctan-2-yl)-9-oxo-6a,7,8,9,10,10a-hexahydro-6H-benzo[c]chromen-1-yl 2,2-dimethyl-4-(11-oxo-2,3,6,7-tetrahydro-1H, 5H, 11H-pyrano[2,3-f]pyrido[3,2,1-ij]quinoline-10-carboxamido)butanoate]",melting point,,132 to 133 °C
"CCCCCCC(C)(C)c1cc(OC(=O)c2cc3ccc(OC)cc3oc2=O)c2c(c1)OC(C)(C)[C@@H]1CCC(=O)C[C@@H]21 [Compound 7.2, (6aR,10aR)-6,6-Dimethyl-3-(2-methyloctan-2-yl)-9-oxo-6a,7,8,9,10,10a-hexahydro-6H-benzo[c]chromen-1-yl 7-methoxy-2-oxo-2H-chromene-3-carboxylate]",melting point,,122 to 123 °C
"CCCCCCC(C)(C)c1cc(OC(=O)C(C)(C)CNC(=O)c2cc3cc4c5c(c3oc2=O)CCCN5CCC4)c2c(c1)OC(C)(C)[C@@H]1CCC(=O)C[C@@H]21 [Compound 9.9, (6aR,10aR)-6,6-Dimethyl-3-(2-methyloctan-2-yl)-9-oxo-6a,7,8,9,10,10a-hexahydro-6H-benzo[c]chromen-1-yl 2,2-dimethyl-3-(11-oxo-2,3,6,7-tetrahydro-1H, 5H, 11H-pyrano[2,3-f]pyrido[3,2,1-ij]quinoline-10-carboxamido)propanoate]",melting point,,131 to 132 °C
"CC(C)(CCCCCCCl)c1cc(O)c2c(c1)OC(C)(C)[C@@H]1CC[C@@H](COC(=O)CCCC[C@@H]3SC[C@@H]4NC(=O)N[C@@H]43)C[C@@H]21 [Compound 4.2, [(6aR,9R,10aR)-3-(8-Chloro-2-methyloctan-2-yl)-1-hydroxy-6,6-dimethyl-6a,7,8,9,10,10a-hexahydro-6H-benzo[c]chromen-9-yl]methyl 5-[(3a,4S,6aR)-2-oxohexahydro-1H-thieno[3,4-d]imidazol-4-yl]pentanoate]",tight/irreversible binding mode,CB1/CB2 receptors,tight/irreversible
"CC(C)(CCCCCCCl)c1cc(O)c2c(c1)OC(C)(C)[C@@H]1CC[C@@H](Cn3cc(COC(=O)CCCC[C@@H]4SC[C@@H]5NC(=O)N[C@@H]54)nn3)C[C@@H]21 [Compound 3.1, (1-{[(6aR,9R,10aR)-3-(8-Chloro-2-methyloctan-2-yl)-1-hydroxy-6,6-dimethyl-6a,7,8,9,10,10a-hexahydro-6H-benzo [c]chromen-9-yl]methyl}-1H-1,2,3-triazol-4-yl)methyl 5-[(3aS,4S,6aR)-2-oxohexahydro-1H-thieno[3,4-d]imidazol-4-yl]pentanoate]",tight/irreversible binding mode,CB1/CB2 receptors,tight/irreversible
"CC(C)(CCCCCCO[N+](=O)[O-])c1cc(O)c2c(c1)OC(C)(C)[C@@H]1CC[C@@H](COC(=O)CCCC[C@@H]3SC[C@@H]4NC(=O)N[C@@H]43)C[C@@H]21 [Compound 4.7, {(6aR,9R,10aR)-1-Hydroxy-6,6-dimethyl-3-[2-methyl-8-(nitrooxy)octan-2-yl]-6a,7,8,9,10,10a-hexahydro-6H-benzo[c]chromen-9-yl}methyl 5-[(3aS,4S,6aR)-2-oxohexahydro-1H-thieno[3,4-d]imidazol-4-yl]pentanoate]",tight/irreversible binding mode,CB1/CB2 receptors,tight/irreversible
CC(C)(CCCCCCCl)c1cc(O)c2c(c1)OC(C)(C)[C@@H]1CC[C@@H](Cn3cc(CNC(=O)c4cc5cc6c7c(c5oc4=O)CCCN7CCC6)nn3)C[C@@H]21 [Compound 3.13],Em λmax,[1]; Acetonitrile,488
same,Ex λmax,[1]; Acetonitrile,435
same,Em λmax,[1]; Ethanol,478
same,Ex λmax,[1]; Ethanol,436
